From patent US10149839B2, “Chemical compounds” (AstraZeneca AB, priority 2016, dated 2018)
Values after ≈ are worked out from the molar mass of the structure shown.

How the values were obtained:
[1] = Thermodynamic solubility (shake flask); type: physicochemical; details: aqueous phosphate buffer pH 7.4, 24 hours
[2] = Human plasma protein binding (equilibrium dialysis); type: in vitro ADME; details: dialysis 18 hours
[3] = Log D (shake flask, 1-octanol/aqueous buffer); details: pH 7.4, 1-octanol/aqueous buffer
[4] = target: T1, Estrogen Receptor (ERα) in MCF-7 cells (Homo sapiens (Human), UniProt P03372); assay: MCF-7 ER down-regulation assay (immuno-fluorescence); type: cell-based; details: for IC50: 18-22 hours incubation; for % downregulation: shown in brackets where not >90%
T1 sequence (P03372 whole entry): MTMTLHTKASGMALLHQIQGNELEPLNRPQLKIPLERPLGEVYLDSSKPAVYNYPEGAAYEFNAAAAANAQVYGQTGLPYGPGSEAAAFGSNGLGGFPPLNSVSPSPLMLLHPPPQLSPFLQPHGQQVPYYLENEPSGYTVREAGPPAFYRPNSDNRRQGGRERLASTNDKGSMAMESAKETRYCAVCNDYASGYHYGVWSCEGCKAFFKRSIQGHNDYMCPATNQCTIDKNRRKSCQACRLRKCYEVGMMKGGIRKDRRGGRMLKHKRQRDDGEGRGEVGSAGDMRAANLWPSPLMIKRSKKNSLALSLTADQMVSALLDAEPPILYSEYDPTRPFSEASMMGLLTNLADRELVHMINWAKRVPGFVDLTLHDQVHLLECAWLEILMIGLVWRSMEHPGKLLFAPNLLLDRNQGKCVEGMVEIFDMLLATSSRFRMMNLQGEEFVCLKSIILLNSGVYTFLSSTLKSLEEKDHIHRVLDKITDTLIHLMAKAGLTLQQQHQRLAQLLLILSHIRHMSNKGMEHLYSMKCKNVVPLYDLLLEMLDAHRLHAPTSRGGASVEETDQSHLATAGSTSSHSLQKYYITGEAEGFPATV

[5] = Human hepatocyte assay (metabolic stability); type: in vitro ADME; details: cryopreserved pooled human hepatocytes (LiverPool 10 Donor), in vitro intrinsic clearance
[6] = physchem; details: 1-octanol/aqueous buffer, pH 7.4
[7] = target: estrogen receptor (ERα) in CAMA-1 cells (Homo sapiens (Human), UniProt P03372); assay: Western blotting assay, CAMA-1 cells; type: cell-based; details: compound 100 nM, 48 h, normalised to 100 nM fulvestrant (100%)
estrogen receptor (ERα) in CAMA-1 cells, sequence (P03372 whole entry): as above

[8] = target: T1, Estrogen Receptor (ERα) in MCF-7 cells; assay: Western blotting assay, MCF-7 cells; type: cell-based; details: compound 100 nM, 48 h, normalised to 100 nM fulvestrant (100%)
[9] = Human Caco-2 bidirectional permeability A to B and B to A; type: in vitro ADME
[10] = Human Caco-2 passive permeability A to B Papp; type: in vitro ADME; details: apical pH 6.5, basolateral pH 7.4, with efflux transporter inhibitor cocktail
[11] = aqueous phosphate buffer, 25 °C, pH 7.4, aqueous buffer, thermodynamic from solid

Row | Compound | solubility at 24 h ([1]; 25° C.) [µM] | Human plasma protein binding (% free) [2] [% free] | LogD pH 7.4 [3] | IC50 [4] [nM] | % downregulation [4] | hepatocyte CLint at 1 µM [5] [µL/min/1e6 cells] | solubility at 24 h [1, 11] [µM] | logD [6] | CAMA1 Western % ER deg vs Fv [7] [%] | MCF7 Western % ER deg vs Fv [8] [%] | Papp at 2 h ([9]; Caco-2, 2 hours, pH 7.4) [×10⁻⁶ cm/s] | efflux ratio at 2 h ([9]; Papp(B-A)/Papp(A-B), Caco-2, pH 7.4) | Papp at 2 h [10] [×10⁻⁶ cm/s]
1 | C[C@@H]1Cc2c([nH]c3ccccc23)[C@@H](c2c(F)cc(OCCNCCCF)cc2F)N1CC(F)CF (single isomer, unassigned) [Example 16] | 149 (≈ 73.8 µg/mL) | 1.8 | 3.1 | – | – | – | – | – | – | – | – | – | –
2 | C[C@@H]1Cc2c([nH]c3ccccc23)[C@@H](c2c(F)cc(OCCNCCCF)cc2F)N1CC(C)(F)CO (single isomer, unassigned) [Example 18] | 639 (≈ 324 µg/mL) | 2.4 | 2.7 | 0.65 | (85%) | – | – | – | – | – | – | – | –
3 | C[C@@H]1Cc2c([nH]c3ccccc23)[C@@H](c2ccc(OCCNCCCF)cc2)N1C[C@H](F)CF (single isomer, unassigned) [Example 26] | 65 (≈ 29.9 µg/mL) | 2.7 | 3.2 | 0.38 | – | – | – | – | – | – | – | – | –
4 | COCC(C)(F)CN1[C@H](c2c(F)cc(OCCNCCCF)cc2F)c2[nH]c3ccccc3c2C[C@H]1C (single isomer, unassigned) [Example 51] | 53 (≈ 27.6 µg/mL) | 0.41 | 3.8 | – | – | – | – | – | – | – | – | – | –
5 | C[C@@H]1Cc2c([nH]c3ccccc23)[C@@H](c2c(F)cc(OCC(CO)NCCCF)cc2F)N1CC(C)(C)F (single isomer, unassigned) [Example 52] | 14 (≈ 7.3 µg/mL) | 0.47 | >4.1 | 0.24 | (79%) | – | – | – | – | – | – | – | –
6 | C[C@@H]1Cc2c([nH]c3ccccc23)[C@@H](c2c(F)cc(OCC(CO)NCCCF)cc2F)N1CC(C)(C)F (single isomer, unassigned) [Example 53] | 23 (≈ 12 µg/mL) | 0.55 | >4.2 | 0.14 | – | – | – | – | – | – | – | – | –
7 | CC(C)CN1[C@H](c2ccc(OCCNCCC(F)F)cc2)c2[nH]c3ccccc3c2C[C@H]1C [Example 1, 3,3-difluoro-N-(2-(4-((1R,3R)-2-isobutyl-3-methyl-2,3,4,9-tetrahydro-1H-pyrido[3,4-b]indol-1-yl)phenoxy)ethyl)propan-1-amine] | – | 1.4 | – | 0.94 | – | < 1 | 34 (≈ 15.5 µg/mL) | 4.6 | – | – | – | – | –
8 | CC(C)CN1[C@H](c2ccc(OCCNCCCF)cc2)c2[nH]c3ccccc3c2C[C@H]1C [Example 2, 3-fluoro-N-(2-(4-((1R,3R)-2-isobutyl-3-methyl-2,3,4,9-tetrahydro-1H-pyrido[3,4-b]indol-1-yl)phenoxy)ethyl)propan-1-amine] | – | 1.5 | – | 0.43 | – | < 1 | 301 (≈ 132 µg/mL) | 3.6 | – | – | – | – | –
9 | C[C@@H]1Cc2c([nH]c3ccccc23)[C@@H](c2ccc(OCCNCCCF)cn2)N1CC(C)(C)F [Example 30, 3-fluoro-N-(2-((6-((1S,3R)-2-(2-fluoro-2-methylpropyl)-3-methyl-2,3,4,9-tetrahydro-1H-pyrido[3,4-b]indol-1-yl)pyridin-3-yl)oxy)ethyl)propan-1-amine] | – | 2.0 | – | 1.2 | – | 5 | 135 (≈ 61.6 µg/mL) | 3.4 | – | – | – | – | –
10 | COc1cc(OCCNCCCF)ncc1[C@@H]1c2[nH]c3ccccc3c2C[C@@H](C)N1CC(F)F [Example 40, N-(2-((5-((1R,3R)-2-(2,2-difluoroethyl)-3-methyl-2,3,4,9-tetrahydro-1H-pyrido[3,4-b]indol-1-yl)-4-methoxypyridin-2-yl)oxy)ethyl)-3-fluoropropan-1-amine] | – | 5.8 | – | 0.17 | – | 5 | 854 (≈ 407 µg/mL) | 2.7 | 85 | 90 | 3.2 | 1.8 | 14
11 | COc1cc(OCCNCCCF)ncc1[C@@H]1c2[nH]c3ccccc3c2C[C@@H](C)N1CC(C)(F)F [Example 42, N-(2-((5-((1R,3R)-2-(2,2-Difluoropropyl)-3-methyl-2,3,4,9-tetrahydro-1H-pyrido[3,4-b]indol-1-yl)-4-methoxypyridin-2-yl)oxy)ethyl)-3-fluoropropan-1-amine] | – | 1.6 | – | 0.079 | – | – | 220 (≈ 108 µg/mL) | 3.3 | 76 | 90 | – | – | –
12 | C[C@@H]1Cc2c([nH]c3ccccc23)[C@@H](c2c(F)cc(NCCNCCCF)cc2F)N1CC1(F)COC1 [Example 44, N1-(3,5-difluoro-4-((1R,3R)-2-((3-fluorooxetan-3-yl)methyl)-3-methyl-2,3,4,9-tetrahydro-1H-pyrido[3,4-b]indol-1-yl)phenyl)-N2-(3-fluoropropyl)ethane-1,2-diamine] | – | 2.3 | – | 0.17 | – | – | 577 (≈ 291 µg/mL) | 3.1 | 90 | 85 | – | – | –
13 | C[C@@H]1Cc2c([nH]c3ccccc23)[C@@H](c2c(F)cc(N(C)CCNCCCF)cc2F)N1CC1(F)CC1 [Example 45, N1-(3,5-difluoro-4-((1R,3R)-2-((1-fluorocyclopropyl)methyl)-3-methyl-2,3,4,9-tetrahydro-1H-pyrido[3,4-b]indol-1-yl)phenyl)-N2-(3-fluoropropyl)-N1-methylethane-1,2-diamine] | – | 1.0 | – | 0.31 | – | – | 85 (≈ 42.7 µg/mL) | 3.5 | 72 | 97 | – | – | –
14 | C[C@@H]1Cc2c([nH]c3ccccc23)[C@@H](c2c(F)cc(NCCNCCCF)cc2F)N1CC(F)(F)CO [Example 46, 3-((1R,3R)-1-(2,6-difluoro-4-((2-((3-fluoropropyl)amino)ethyl)amino)phenyl)-3-methyl-1,3,4,9-tetrahydro-2H-pyrido[3,4-b]indol-2-yl)-2,2-difluoropropan-1-ol] | – | 2.3 | – | 0.093 | – | – | 952 (≈ 486 µg/mL) | 2.6 | 74 | 88 | – | – | –
15 | COc1cc(NCCNCCCF)ccc1[C@@H]1c2[nH]c3ccccc3c2C[C@@H](C)N1CC1(F)COC1 [Example 47, N1-(4-((1R,3R)-2-((3-fluorooxetan-3-yl)methyl)-3-methyl-2,3,4,9-tetrahydro-1H-pyrido[3,4-b]indol-1-yl)-3-methoxyphenyl)-N2-(3-fluoropropyl)ethane-1,2-diamine] | – | 5.0 | – | 0.24 | – | – | 840 (≈ 419 µg/mL) | 2.5 | 81 | 90 | – | – | –
16 | COc1cc(OCCNCCCF)ncc1[C@@H]1c2[nH]c3ccccc3c2C[C@@H](C)N1CC(F)(F)CO [Example 64, 2,2-difluoro-3-((1R,3R)-1-(6-(2-((3-fluoropropyl)amino)ethoxy)-4-methoxypyridin-3-yl)-3-methyl-1,3,4,9-tetrahydro-2H-pyrido[3,4-b]indol-2-yl)propan-1-ol] | – | 12 | – | 0.21 | – | – | 849 (≈ 430 µg/mL) | 2.2 | 87 | 73 | – | – | –
17 | COc1nc(OCCNCCCF)ccc1[C@@H]1c2[nH]c3ccccc3c2C[C@@H](C)N1CC(F)F [Example 75, N-(2-((5-((1R,3R)-2-(2,2-difluoroethyl)-3-methyl-2,3,4,9-tetrahydro-1H-pyrido[3,4-b]indol-1-yl)-6-methoxypyridin-2-yl)oxy)ethyl)-3-fluoropropan-1-amine] | – | 1.0 | – | 1.2 | – | – | 411 (≈ 196 µg/mL) | 3.4 | 60 | 31 | – | – | –
